# Experimental data reported in ChEMBL document CHEMBL2062412, “Structure and bioassay of triterpenoids and steroids isolated from Sinocalamus affinis” (J Nat Prod, 2012).
# Biological target: T1, Tyrosine-protein phosphatase non-receptor type 1 (Homo sapiens, UniProt P18031)
# T1 sequence (P18031 whole entry): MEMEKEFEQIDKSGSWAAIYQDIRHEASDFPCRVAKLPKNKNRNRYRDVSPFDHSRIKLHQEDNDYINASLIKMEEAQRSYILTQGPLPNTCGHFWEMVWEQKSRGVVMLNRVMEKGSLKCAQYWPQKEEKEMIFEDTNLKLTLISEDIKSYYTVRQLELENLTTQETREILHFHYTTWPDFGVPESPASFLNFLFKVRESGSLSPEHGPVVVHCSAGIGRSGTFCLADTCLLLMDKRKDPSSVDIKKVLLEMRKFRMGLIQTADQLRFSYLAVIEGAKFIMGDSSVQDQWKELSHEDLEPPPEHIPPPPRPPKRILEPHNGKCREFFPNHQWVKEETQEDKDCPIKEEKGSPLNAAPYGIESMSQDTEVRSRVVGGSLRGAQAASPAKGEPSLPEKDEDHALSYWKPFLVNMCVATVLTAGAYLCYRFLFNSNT
# Assay: Inhibition of GST-tagged human recombinant PTP1B using para-nitrophenyl phosphate as substrate by spectrophotometric analysis
row,SMILES,IC50 [µM]
1,CC(C)[C@@H]1C[C@@H](O)[C@H]2[C@@]1(CO)CC[C@@]1(C)[C@H]3C(=CC[C@]21C)C1=C(C[C@@H]3O)C(C)(C)[C@@H](O)CC1,6.8
2,CC(C)[C@@H]1[C@H](O)[C@@H](O)[C@H]2[C@@]1(CO)CC[C@@]1(C)[C@H]3C(=CC[C@]21C)C1=C(C[C@@H]3O)C(C)(C)[C@@H](O)CC1,6.8
3,CC(C)[C@@H]1CC(=O)[C@H]2[C@@]1(CO)CC[C@@]1(C)[C@H]3C(=CC[C@]21C)C1=C(C[C@@H]3O)C(C)(C)[C@@H](O)CC1,6.8
4,CC(C)[C@@H]1C[C@@H](O)[C@H]2[C@@]1(CO)CC[C@@]1(C)[C@H]3C(=CC[C@]21C)C1=C(C[C@@H]3O)[C@](C)(CO)[C@@H](O)CC1,6.8
5,CC(C)[C@@H]1C[C@@H](O)[C@H]2[C@@]1(CO)CC[C@@]1(C)[C@H]3C(=CC[C@]21C)C1=CC[C@H](O)C(C)(C)[C@H]1C[C@@H]3O,6.8
